The results in this text go back to patent US7238527B2, “Methods and compositions for rapid in vitro propagation of Swertia chirata” (priority 2001, dated 2007).

In this assay the test system is Swertia chirata shoots. Description: Rooting of excised four-week shoots on modified MS with auxins (Example 3). Format: cell-based. To be noted: for Rooting %: agar 0.8%. Here is the method:
The effect of various auxins on rooting percent and duration may be studied using four-week shoots obtained in the preceding section.
The excised shoot may be transferred to modified MS basal culture medium with varied concentrations of several auxins selected from a group comprising IAA, IBA, and NAA as shown in Table 3.
In this experiment there are 3 treatments of auxin IAA, IBA and NAA using various levels (1–5 mg/L) supplemented to modified MS media, Supporting system Agar (0.8%).
Four weeks long shoot achieved in experiment 2 were excised and transferred to above referred medium

In the case of indole butyric acid [IBA], the Time to rooting entry (1.0 to 5.0 mg/L auxin in modified MS basal culture medium) is listed as “about 8 weeks”. Further, the “Rooting (wks)” value reads like this: (auxin 1 mg/L in modified MS) 8 wks; (auxin 2 mg/L in modified MS) 8 wks; (auxin 5 mg/L in modified MS) 8 wks. Also, the Rooting % by setting is: (auxin 1 mg/L in modified MS) 60%; (auxin 2 mg/L in modified MS) 62%; (auxin 5 mg/L in modified MS) 60%. In addition, for the setting “in words”, the Root morphology result was “white colored, thick, and short”.
